Experimental data as given in patent US6358885B1, “Substituted phenylheterocyclic herbicides” (Mississippi State University, priority 1992, dated 2002).

Assays:
Assay in all cases: Test B preemergence/postemergence greenhouse plant response rating 0 to 10
barley = type: in vivo, Hordeum vulgare; details: 0 to 10 scale
In short: (§1)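 Test chemicals were sprayed onto freshly planted seed and, concurrently, onto young plants between the one and four leaf stage. After a twelve- to sixteen-day greenhouse period, each species was visually compared with untreated controls.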

barnyardgrass = type: in vivo, Echinochloa crus-galli; details: 0 to 10 scale
In short: as §1

bedstraw = type: in vivo, Galium aparine; details: 0 to 10 scale
In short: as §1

blackgrass = type: in vivo, Alopecurus myosuroides; details: 0 to 10 scale
In short: as §1

cheatgrass = type: in vivo, Bromus secalinus; details: 0 to 10 scale
In short: as §1

chickweed = type: in vivo, Stellaria media; details: 0 to 10 scale
In short: as §1

cocklebur = type: in vivo, Xanthium pensylvanicum; details: 0 to 10 scale
In short: as §1

corn = type: in vivo, Zea mays; details: 0 to 10 scale
In short: as §1

cotton = type: in vivo, Gossypium hirsutum; details: 0 to 10 scale
In short: as §1

crabgrass = type: in vivo, Digitaria spp.; details: PREEMERGENCE, 0 to 10 scale
In short: as §1

giant foxtail = type: in vivo, Setaria faberii; details: 0 to 10 scale
In short: as §1

lambsquarters = type: in vivo, Chenopodium album; details: 0 to 10 scale
In short: as §1

morningglory = type: in vivo, Ipomoea hederacea; details: 0 to 10 scale
In short: as §1

rape = type: in vivo, Brassica napus; details: 0 to 10 scale
In short: as §1

rice = type: in vivo, Oryza sativa; details: 0 to 10 scale
In short: as §1

sorghum = type: in vivo, Sorghum bicolor; details: 0 to 10 scale
In short: as §1

soybean = type: in vivo, Glycine max; details: 0 to 10 scale
In short: as §1

sugar beet = type: in vivo, Beta vulgaris; details: 0 to 10 scale
In short: as §1

velvetleaf = type: in vivo, Abutilon theophrasti; details: 0 to 10 scale
In short: as §1

wheat = type: in vivo, Triticum aestivum; details: 0 to 10 scale
In short: as §1

wild buckwheat = type: in vivo, Polygonum convolvulus; details: 0 to 10 scale
In short: as §1

wild oat = type: in vivo, Avena fatua; details: 0 to 10 scale
In short: as §1

purple nutsedge = type: in vivo, Cyperus rotundus; details: 0 to 10 scale
In short: as §1

CC(=O)c1cc(-c2nn3c(c2Cl)CCCC3)c(F)cc1Cl [Compound 45] was tested, and the “Plant response rating, Barley” value (barley; POSTEMERGENCE, Rate 50 g/ha) was 4, the “Plant response rating, Barley” value (barley; POSTEMERGENCE, Rate 200 g/ha) was 3 and the “Plant response rating, Barley” value (barley; PREEMERGENCE, Rate 50 g/ha) was 0. The “Plant response rating, Barley” value (barley; Rate 200 g/ha, PREEMERGENCE) was 2, the “Plant response rating, Barnyardgrass” value (barnyardgrass; POSTEMERGENCE, Rate 50 g/ha) was 3 and the “Plant response rating, Barnyardgrass” value (barnyardgrass; POSTEMERGENCE, Rate 200 g/ha) was 5. For the same compound, the “Plant response rating, Barnyardgrass” value (barnyardgrass; PREEMERGENCE, Rate 50 g/ha) was 0, the “Plant response rating, Barnyardgrass” value (barnyardgrass; Rate 200 g/ha, PREEMERGENCE) was 5 and the “Plant response rating, Bedstraw” value (bedstraw; POSTEMERGENCE, Rate 50 g/ha) was 8. For the same compound, the “Plant response rating, Bedstraw” value (bedstraw; POSTEMERGENCE, Rate 200 g/ha) was 10, the “Plant response rating, Bedstraw” value (bedstraw; PREEMERGENCE, Rate 50 g/ha) was 2 and the “Plant response rating, Bedstraw” value (bedstraw; Rate 200 g/ha, PREEMERGENCE) was 4. The “Plant response rating, Blackgrass” value (blackgrass; POSTEMERGENCE, Rate 50 g/ha) was 6, the “Plant response rating, Blackgrass” value (blackgrass; POSTEMERGENCE, Rate 200 g/ha) was 3 and the “Plant response rating, Blackgrass” value (blackgrass; PREEMERGENCE, Rate 50 g/ha) was 2. For the same compound, the “Plant response rating, Blackgrass” value (blackgrass; Rate 200 g/ha, PREEMERGENCE) was 3, the “Plant response rating, Cheatgrass” value (cheatgrass; POSTEMERGENCE, Rate 50 g/ha) was 4 and the “Plant response rating, Cheatgrass” value (cheatgrass; POSTEMERGENCE, Rate 200 g/ha) was 6. For the same compound, the “Plant response rating, Cheatgrass” value (cheatgrass; PREEMERGENCE, Rate 50 g/ha) was 2, the “Plant response rating, Cheatgrass” value (cheatgrass; Rate 200 g/ha, PREEMERGENCE) was 2 and the “Plant response rating, Chickweed” value (chickweed; POSTEMERGENCE, Rate 50 g/ha) was 8. The “Plant response rating, Chickweed” value (chickweed; POSTEMERGENCE, Rate 200 g/ha) was 7, the “Plant response rating, Chickweed” value (chickweed; PREEMERGENCE, Rate 50 g/ha) was 3 and the “Plant response rating, Chickweed” value (chickweed; Rate 200 g/ha, PREEMERGENCE) was 2. For the same compound, the “Plant response rating, Cocklebur” value (cocklebur; POSTEMERGENCE, Rate 50 g/ha) was 7, the “Plant response rating, Cocklebur” value (cocklebur; POSTEMERGENCE, Rate 200 g/ha) was 8 and the “Plant response rating, Cocklebur” value (cocklebur; PREEMERGENCE, Rate 50 g/ha) was 0. The “Plant response rating, Cocklebur” value (cocklebur; Rate 200 g/ha, PREEMERGENCE) was 4, the “Plant response rating, Corn” value (corn; POSTEMERGENCE, Rate 50 g/ha) was 5 and the “Plant response rating, Corn” value (corn; POSTEMERGENCE, Rate 200 g/ha) was 5. For the same compound, the “Plant response rating, Corn” value (corn; PREEMERGENCE, Rate 50 g/ha) was 0, the “Plant response rating, Corn” value (corn; Rate 200 g/ha, PREEMERGENCE) was 1 and the “Plant response rating, Cotton” value (cotton; POSTEMERGENCE, Rate 50 g/ha) was 10. The “Plant response rating, Cotton” value (cotton; POSTEMERGENCE, Rate 200 g/ha) was 10, the “Plant response rating, Cotton” value (cotton; PREEMERGENCE, Rate 50 g/ha) was 0 and the “Plant response rating, Cotton” value (cotton; Rate 200 g/ha, PREEMERGENCE) was 0. For the same compound, the “Plant response rating, Crabgrass” value (crabgrass; Rate 50 g/ha) was 0, the “Plant response rating, Crabgrass” value (crabgrass; Rate 200 g/ha) was 6 and the “Plant response rating, Giant foxtail” value (giant foxtail; POSTEMERGENCE, Rate 50 g/ha) was 5. The “Plant response rating, Giant foxtail” value (giant foxtail; PREEMERGENCE, Rate 50 g/ha) was 2, the “Plant response rating, Giant foxtail” value (giant foxtail; Rate 200 g/ha, POSTEMERGENCE) was 5 and the “Plant response rating, Giant foxtail” value (giant foxtail; Rate 200 g/ha, PREEMERGENCE) was 5. For the same compound, the “Plant response rating, Lambsquarter” value (lambsquarters; POSTEMERGENCE, Rate 50 g/ha) was 10, the “Plant response rating, Lambsquarter” value (lambsquarters; PREEMERGENCE, Rate 50 g/ha) was 10 and the “Plant response rating, Lambsquarter” value (lambsquarters; Rate 200 g/ha, POSTEMERGENCE) was 10. The “Plant response rating, Lambsquarter” value (lambsquarters; Rate 200 g/ha, PREEMERGENCE) was 10, the “Plant response rating, Morningglory” value (morningglory; POSTEMERGENCE, Rate 50 g/ha) was 8 and the “Plant response rating, Morningglory” value (morningglory; PREEMERGENCE, Rate 50 g/ha) was 2. For the same compound, the “Plant response rating, Morningglory” value (morningglory; Rate 200 g/ha, POSTEMERGENCE) was 9, the “Plant response rating, Morningglory” value (morningglory; Rate 200 g/ha, PREEMERGENCE) was 4 and the “Plant response rating, Rape” value (rape; POSTEMERGENCE, Rate 50 g/ha) was 3. For the same compound, the “Plant response rating, Rape” value (rape; PREEMERGENCE, Rate 50 g/ha) was 2, the “Plant response rating, Rape” value (rape; Rate 200 g/ha, POSTEMERGENCE) was 10 and the “Plant response rating, Rape” value (rape; Rate 200 g/ha, PREEMERGENCE) was 7. For the same compound, the “Plant response rating, Rice” value (rice; POSTEMERGENCE, Rate 50 g/ha) was 6, the “Plant response rating, Rice” value (rice; PREEMERGENCE, Rate 50 g/ha) was 0 and the “Plant response rating, Rice” value (rice; Rate 200 g/ha, POSTEMERGENCE) was 6. The “Plant response rating, Rice” value (rice; Rate 200 g/ha, PREEMERGENCE) was 3, the “Plant response rating, Sorghum” value (sorghum; POSTEMERGENCE, Rate 50 g/ha) was 4 and the “Plant response rating, Sorghum” value (sorghum; PREEMERGENCE, Rate 50 g/ha) was 0. For the same compound, the “Plant response rating, Sorghum” value (sorghum; Rate 200 g/ha, POSTEMERGENCE) was 5, the “Plant response rating, Sorghum” value (sorghum; Rate 200 g/ha, PREEMERGENCE) was 1 and the “Plant response rating, Soybean” value (soybean; POSTEMERGENCE, Rate 50 g/ha) was 8. The “Plant response rating, Soybean” value (soybean; PREEMERGENCE, Rate 50 g/ha) was 0, the “Plant response rating, Soybean” value (soybean; Rate 200 g/ha, POSTEMERGENCE) was 8 and the “Plant response rating, Soybean” value (soybean; Rate 200 g/ha, PREEMERGENCE) was 2. The “Plant response rating, Sugar beet” value (sugar beet; POSTEMERGENCE, Rate 50 g/ha) was 7, the “Plant response rating, Sugar beet” value (sugar beet; PREEMERGENCE, Rate 50 g/ha) was 7 and the “Plant response rating, Sugar beet” value (sugar beet; Rate 200 g/ha, POSTEMERGENCE) was 10. The “Plant response rating, Sugar beet” value (sugar beet; Rate 200 g/ha, PREEMERGENCE) was 9, the “Plant response rating, Velvetleaf” value (velvetleaf; POSTEMERGENCE, Rate 50 g/ha) was 9 and the “Plant response rating, Velvetleaf” value (velvetleaf; PREEMERGENCE, Rate 50 g/ha) was 2. The “Plant response rating, Velvetleaf” value (velvetleaf; Rate 200 g/ha, POSTEMERGENCE) was 10, the “Plant response rating, Velvetleaf” value (velvetleaf; Rate 200 g/ha, PREEMERGENCE) was 0 and the “Plant response rating, Wheat” value (wheat; POSTEMERGENCE, Rate 50 g/ha) was 3. The “Plant response rating, Wheat” value (wheat; PREEMERGENCE, Rate 50 g/ha) was 2, the “Plant response rating, Wheat” value (wheat; Rate 200 g/ha, POSTEMERGENCE) was 8 and the “Plant response rating, Wheat” value (wheat; Rate 200 g/ha, PREEMERGENCE) was 5. The “Plant response rating, Wild buckwheat” value (wild buckwheat; POSTEMERGENCE, Rate 50 g/ha) was 10, the “Plant response rating, Wild buckwheat” value (wild buckwheat; PREEMERGENCE, Rate 50 g/ha) was 3 and the “Plant response rating, Wild buckwheat” value (wild buckwheat; Rate 200 g/ha, POSTEMERGENCE) was 10. The “Plant response rating, Wild buckwheat” value (wild buckwheat; Rate 200 g/ha, PREEMERGENCE) was 10, the “Plant response rating, Wild oat” value (wild oat; POSTEMERGENCE, Rate 50 g/ha) was 2 and the “Plant response rating, Wild oat” value (wild oat; PREEMERGENCE, Rate 50 g/ha) was 2. For the same compound, the “Plant response rating, Wild oat” value (wild oat; Rate 200 g/ha, POSTEMERGENCE) was 3, the “Plant response rating, Nutsedge” value (purple nutsedge; PREEMERGENCE, Rate 50 g/ha) was 0 and the “Plant response rating, Nutsedge” value (purple nutsedge; Rate 200 g/ha, POSTEMERGENCE) was 6. The “Plant response rating, Nutsedge” value (purple nutsedge; Rate 200 g/ha, PREEMERGENCE) was 0.
